Reference: patent US7220756B2, “N-sulfonylheterocyclopyrrolyl-alkylamine compounds as 5-hydroxytryptamine-6 ligands” (Wyeth, priority 2003, dated 2007)

biological target: T1, human cloned 5-HT6 receptors (Homo sapiens, UniProt P50406); test: 5-HT6 binding affinity, [3H]-LSD displacement; settings: membranes of Hela cells expressing human cloned 5-HT6 receptors; [3H]-LSD 3.0 nM; 120 min, room temperature; read-out: 5-HT6 Binding Ki
T1 construct: expressed in transfected cells; host or cells: HeLa cells
Experimental: The affinity of test compounds for the serotonin 5-HT6 receptor is evaluated in the following manner. Cultured Hela cells expressing human cloned 5-HT6 receptors are harvested and centrifuged at low speed (1,000×g) for 10.0 min to remove the culture media. The harvested cells are suspended in half volume of fresh physiological phosphate buffered saline solution and recentrifuged at the same speed. This operation is repeated. The collected cells are then homogenized in ten volumes of 50 mM Tris.HCl (pH 7.4) and 0.5 mM EDTA. The homogenate is centrifuged at 40,000×g for 30.0 min and the precipitate is collected. The obtained pellet is resuspended in 10 volumes of Tris.HCl buffer and recentrifuged at the same speed. The final pellet is suspended in a small volume of Tris.HCl buffer and the tissue protein content is determined in aliquots of 10–25 μl volumes. Bovine Serum Albumin is used as the standard in the protein determination according to the method described in Lowry et al., J. Biol. Chem., 193:265 (1951). The volume of the suspended cell membranes is adjusted to give a tissue protein concentration of 1.0 mg/ml of suspension. The prepared membrane suspension (10 times concentrated) is aliquoted in 1.0 ml volumes and stored at −70° C. until used in subsequent binding experiments.
The reaction is allowed to proceed in the dark for 120 min at room temperature, at which time, the bound ligand-receptor complex is filtered off on a 96 well unifilter with a Packard Filtermate® 196 Harvester. The bound complex caught on the filter disk is allowed to air dry and the radioactivity is measured in a Packard TopCount® equipped with six photomultiplier detectors, after the addition of 40.0 μl Microscint®−20 scintillant to each shallow well. The unifilter plate is heat-sealed and counted in a PackardTopCount® with a tritium efficiency of 31.0%.
Binding in the presence of varying concentrations of test compound is expressed as a percentage of specific binding in the absence of test compound. The results are plotted as log % bound versus log concentration of test compound. […] A linear regression line of data points is plotted, from which the IC50 value is determined and the Ki value is determined based upon the following equation: Ki=IC50/(1+L/KD) where L is the concentration of the radioactive ligand used and KD is the dissociation constant of the ligand for the receptor, both expressed in nM.

T1 sequence (P50406 whole entry): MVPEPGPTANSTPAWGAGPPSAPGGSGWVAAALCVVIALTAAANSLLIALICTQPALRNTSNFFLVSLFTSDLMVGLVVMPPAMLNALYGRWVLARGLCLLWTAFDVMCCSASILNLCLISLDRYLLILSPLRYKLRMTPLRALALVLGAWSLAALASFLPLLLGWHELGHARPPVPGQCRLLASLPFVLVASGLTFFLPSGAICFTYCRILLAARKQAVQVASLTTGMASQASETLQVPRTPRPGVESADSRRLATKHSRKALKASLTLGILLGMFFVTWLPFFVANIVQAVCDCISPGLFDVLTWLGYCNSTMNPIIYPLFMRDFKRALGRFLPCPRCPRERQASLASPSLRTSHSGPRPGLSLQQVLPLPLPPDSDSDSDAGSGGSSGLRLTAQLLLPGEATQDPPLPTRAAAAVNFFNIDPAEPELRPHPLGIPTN

Row | Compound | Ki [nM]
1 | COc1ccc(S(=O)(=O)n2cc(CCN(C)C)c3ccsc32)cc1 [Example 63, N,N-dimethyl-2-{[6-(4-methoxyphenyl)sulfonyl]-6H-thieno[2,3-b]pyrrol-4-yl}ethyl-amine] | 3.7 ± 0.1
2 | NCCc1cn(S(=O)(=O)c2ccc3ccccc3c2)c2ccsc12 [Example 66] | 9.2 ± 1
3 | COc1cccc(S(=O)(=O)n2cc(CCN)c3sccc32)c1 [Example 67, 2-{[4-(3-methoxyphenyl)sulfonyl]-4H-thieno[3,2-b]pyrrol-6-yl}ethylamine] | 2 ± 0.1
4 | Cc1c(S(=O)(=O)n2cc(CCN)c3sccc32)sc2ccc(Cl)cc12 [Example 68] | 25 ± 1
5 | CN(C)CCc1cn(S(=O)(=O)c2ccccc2)c2ccsc12 [Example 70] | 1.2 ± 0.1
6 | CN(C)CCc1cn(S(=O)(=O)c2cccc(C(F)(F)F)c2)c2ccsc12 [Example 71] | 3 ± 0.2
7 | CN(C)CCc1cn(S(=O)(=O)c2c(Cl)nc3sccn23)c2ccsc12 [Example 74] | 0.2
8 | COc1cccc(S(=O)(=O)n2cc(CCN(C)C)c3sccc32)c1 [Example 76] | 1.3 ± 0.1
9 | Cc1c(S(=O)(=O)n2cc(CCN(C)C)c3sccc32)sc2ccc(Cl)cc12 [Example 77] | 24.3 ± 1.5
10 | CN(C)CCc1cn(S(=O)(=O)c2ccccc2F)c2ccsc12 [Example 78] | 2.1 ± 0.1
11 | CN(C)CCc1cn(S(=O)(=O)c2cccc(F)c2)c2ccsc12 [Example 79] | 0.9
12 | N,N-dimethyl-2-[6-(2-naphthylsufonyl)-6H-thieno[2,3-b]pyrrol-4-yl]ethylamine [Example 43] | 2.5 ± 0.2
13 | N,N-dimethyl-2-{[6-(2,3-dichlorophenyl)sulfonyl]-6H-thieno[2,3-b]pyrrol-4-yl}ethyl-amine [Example 53] | 3 ± 0.1
14 | N,N-dimethyl-2-{[6-(2,6-dichloroimidazo[2,1-b]thiazol-5-yl)sulfonyl]-6H-thieno[2,3-b]pyrrol-4-yl}ethylamine [Example 51] | 6.8 ± 0.6
15 | N,N-dimethyl-2-{[6-(2-chloroimidazo[1,2-a]pyridin-3-yl)sulfonyl]-6H-thieno[2,3-b]pyrrol-4-yl}ethylamine [Example 50] | 2.1 ± 0.1
16 | N,N-dimethyl-2-{[6-(2-chlorophenyl)sulfonyl]-6H-thieno[2,3-b]pyrrol-4-yl}ethylamine [Example 48] | 5.5 ± 0.5
17 | N,N-dimethyl-2-{[6-(3-bromophenyl)sulfonyl]-6H-thieno[2,3-b]pyrrol-4-yl}-ethylamine [Example 54] | 1.7 ± 0.1
18 | N,N-dimethyl-2-{[6-(3-chloro-2-methylphenyl)sulfonyl]-6H-thieno[2,3-b]pyrrol-4-yl}-ethylamine [Example 64] | 5.9 ± 1.4
19 | N,N-dimethyl-2-{[6-(3-chlorophenyl)sulfonyl]-6H-thieno[2,3-b]pyrrol-4-yl}ethylamine [Example 40] | 1.6 ± 0.3
20 | N,N-dimethyl-2-{[6-(4,5-dichlorothien-2-yl)sulfonyl]-6H-thieno[2,3-b]pyrrol-4-yl]-ethyl]-amine [Example 57] | 4.9 ± 0.3
21 | N,N-dimethyl-2-{[6-(4-chlorophenyl)sulfonyl]-6H-thieno[2,3-b]pyrrol-4-yl}ethylamine [Example 52] | 2.6 ± 0.2
22 | N,N-dimethyl-2-{[6-(5-bromothien-2-yl)sulfonyl]-6H-thieno[2,3-b]pyrrol-4-ylethyl}-amine [Example 55] | 1.1 ± 0.1
23 | N,N-dimethyl-2-{[6-(5-chlorothien-2-yl)sulfonyl]-6H-thieno[2,3-b]pyrrol-4-yl]-ethyl}-amine [Example 41] | 1.3 ± 0.1
24 | N,N-dimethyl-2-{[6-(6-chloroimidazo[2,1-b][1,3]thiazol-5-yl)sulfonyl]-6H-thieno[2,3-b]pyrrol-4-yl}ethylamine [Example 42] | 0.9 ± 0.1
25 | N,N-dimethyl-2-{[6-(imidazo[2,1-b][1,3]thiazol-5-yl)sulfonyl]-6H-thieno[2,3-b]pyrrol-4-yl}-ethylamine [Example 49] | 1.1 ± 0.1
